# According to patent publication US20170022171A1, “2,5-DISUBSTITUTED CYCLOPENTANECARBOXYLIC ACIDS AND THEIR USE” (Bayer Pharma Aktiengesellschaft, priority 2014, published 2017):
# System: rat hepatocytes
# Experiment: Hepatocyte assay for determination of metabolic stability
# Type: in vitro ADME
# Settings: after incubation with rat hepatocytes
# Method: The metabolic stability of test compounds towards hepatocytes is determined by incubating the compounds at low concentrations (preferably below or around 1 μM) and at low cell counts (preferably at 1*10^6 cells/ml) in order to ensure maximum linearity of kinetic conditions in the experiment. Seven samples from the incubation solution are taken for the LC-MS analysis within a fixed time pattern, in order to determine the half-life (i.e. the degradation) of the particular compound. This half life is used to calculate various “Clearance” parameters (CL) and “Fmax” values (see below).
# The CL and Fmax values are a measure of the phase 1 and phase 2 metabolism of the compounds in the hepatocytes. In order to minimize the influence of the organic solvent on the enzymes in the incubation batches, the concentration thereof is generally limited to 1% (acetonitrile) or 0.1% (DMSO).
# For all species and breeds, a hepatocyte cell count in the liver of 1.1*10^8 cells/g of liver is expected.
# The parameters calculated and the meanings thereof are: • Fmax well-stirred [%] maximum possible bioavailability after oral administration • Calculation: (1−CLblood well-stirred/QH)*100 • CLblood well-stirred [L/(h*kg)] calculated blood clearance (well-stirred model) • Calculation: (QH*CL′intrinsic)/(QH+CL′intrinsic) • CL′intrinsic[ml/(min*kg)] maximum ability of the liver (of the hepatocytes) to metabolize a compound (assuming that the liver blood flow is not rate-limiting) • Calculation: CL′intrinsic, apparent*species-specific hepatocyte count [1.1*10^8/g liver]*species-specific liver weight [g/kg] • CL′intrinsic, apparent[ml/(min*mg)] normalizes the elimination constant by dividing it by the hepatocyte cell count x used (x*10^6/ml) • Calculation: ke1[1/min]/(cell count [x*10^6]/incubation volume [ml]) • (QH=species-specific liver blood flow).
compound,measurement,value
"O=C(O)[C@H]1[C@H](Cn2nnc3ccc(C(F)(F)F)cc3c2=O)CC[C@@H]1C(=O)c1ccc(OCc2ccccc2)cc1 (racemic) [Example 11, (+/−)-(1RS,2RS,5SR)-2-[4-(Benzyloxy)benzoyl]-5-{[4-oxo-6-(trifluoromethyl)-1,2,3-benzotriazin-3(4H)-yl]methyl}cyclopentanecarboxylic acid]","CLblood (calculated blood clearance, well-stirred)",18.7 mL/min/kg
same,"Fmax (maximum possible bioavailability after oral administration, well-stirred)",73.3%
